For 18 compounds, DC50 results are on record in patent publication US20260306639A1, “DEGRADER FOR DECOMPOSING CMET PROTEIN, AND PHARMACEUTICAL COMPOSITION COMPRISING SAME” (INNOCURE THERAPEUTICS, INC., priority 2022, published 2026).

This assay concerns c-MET. The experiment in a line: c-MET protein degradation (Simple Western), MKN-45 cells. It is filed as cell-based, human. Conditions: MKN-45 gastric cancer cells, c-MET overexpressing; 24 hours. As to the method: In order to assess the resolution of the compound of the present invention for c-MET expressed in cells, cells were dispensed in a 12-well plate at a concentration of 2×10^5 cells/well, and then gastric cancer cell lines were treated with samples for 24 hours and lung cancer cell lines were treated for 48 hours. Cell lysates were collected using a scraper on ice, centrifuged at 4° C. 15,000 rpm for 30 min to obtain a protein-containing supernatant. Protein expression was then measured using the Simple Western Automated Western Blot System Abby instrument using 3 μg of protein for each sample. SDS and heat-induced denaturation proteins were separated by molecular weight, attached to capillary, reacted with anti-c-MET or anti-GAPDH antibodies, which are primary antibodies, and then reacted with HRP-conjugated secondary antibodies, and analyzed the protein expression signal with compass software. Protein expression was normalized based on the expression value of GAPDH, and protein development in each sample was measured as a percentage (%) based on 100% of samples treated with 0.1% DMSO carriers, and DC50 (concentration of a compound where 50% protein inhibition is achieved) was calculated from the change in protein expression amount due to compound treatment.

Broadly, the DC50 is the concentration giving 50% degradation. Turning to `Cn1cc(-c2cnc3c(nnn3C[C@@H]3CN(c4ncc(-c5ccc(CN6CCN(C(=O)CCCCNc7cccc8cnn(C9CCC(=O)NC9=O)c(=O)c78)CC6)cc5)cn4)CCO3)n2)cn1` (stereo partly drawn) [ICT-0000959, 3-{8-[(5-{4-[(4-{2-[(2S)-2-{[5-(1-methyl-1H-pyrazole-4-yl)-1H-[1,2,3]triazolo[4,5-b]pyrazine-1-yl]methyl}morpholine-4-il]pyrimidine-5-yl}phenyl)methyl]piperazine-1-yl}-5-oxopentyl)amino]-1-oxo-1,2-dihydropthalazine-2-yl}piperidine-2,6-dione], the DC50 was under 100 nM. Compound `Cn1cc(-c2cnc3c(nnn3CC3CN(c4ncc(-c5ccc(CN6CCN(C(=O)CCCNc7cccc8cnn(C9CCC(=O)NC9=O)c(=O)c78)CC6)cc5)cn4)CCO3)n2)cn1` [ICT-0000969, 3-(8-((4-(4-(4-(4-(2-((S)-2-((5-(1-methyl-1H-pyrazole-4-yl)-1H-[1,2,3]triazolo[4,5-b]pyrazine-1-yl)methyl)morpholino)pyrimidine-5-yl)benzyl)piperazine-1-yl)4-oxobutyl)amino)1-oxopthalazine-2(1H)-yl)piperidine-2,6-dione] registered a DC50 of under 100 nM. The compound `Cc1nn(C2CCC(=O)NC2=O)c(=O)c2c(NCC(=O)N3CCC(COc4cnc(-c5cccc(Cn6nc(-c7cccc(C#N)c7)ccc6=O)c5)nc4)CC3)cccc12` (stereo not drawn) [ICT-0000981] showed a DC50 of over 1000 nM.

As to `N#Cc1cccc(-c2ccc(=O)n(Cc3cccc(-c4ncc(OCC5CCN(C(=O)CCCCCNc6ccc7c(=O)n(C8CCC(=O)NC8=O)ncc7c6)CC5)cn4)c3)n2)c1` (stereo not drawn) [ICT-0000984, 3-(1-{[3-(5-{[1-(6-{[2-(2,6-dioxopiperidin-3-yl)-1-oxo-1,2-dihydroptalazine-6-yl]amino}hexanoyl)piperidine-4-il]methoxy}pyrimidine-2-yl)phenyl]methyl}-6-oxo-1,6-dihydropyridazine-3-yl)benzonitrile], the DC50 lay within 100 to 1000 nM. Then `N#Cc1cccc(-c2ccc(=O)n(Cc3cccc(-c4ncc(OCC5CCN(C(=O)CCCCCCNc6ccc7c(=O)n(C8CCC(=O)NC8=O)ncc7c6)CC5)cn4)c3)n2)c1` (stereo not drawn) [ICT-0000985, 3-(1-{[3-(5-{[1-(7-{[2-(2,6-dioxopiperidin-3-yl)-1-oxo-1,2-dihydrophthalazine-6-yl]amino}heptanoyl)piperidine-4-il]methoxy}pyrimidine-2-yl)phenyl]methyl}-6-oxo-1,6-dihydropyridazine-3-yl)benzonitrile], with under 100 nM. For `N#Cc1cccc(-c2ccc(=O)n(Cc3cccc(-c4ncc(OCC5CCN(C(=O)COCCOCCNc6ccc7c(=O)n(C8CCC(=O)NC8=O)ncc7c6)CC5)cn4)c3)n2)c1` (stereo not drawn) [ICT-0000986, 3-{1-[(3-{5-[(1-{2-[2-(2-{[2-(2,6-dioxopiperidin-3-yl)-1-oxo-1,2-dihydropthalazine-6-yl]amino}ethoxy)ethoxy]acetyl}piperidine-4-il)methoxy]pyrimidine-2-yl}phenyl)methyl]-6-oxo-1,6-dihydropyridazine-3-yl}benzonitrile] the value was under 100 nM. For `Cc1nn(C2CCC(=O)NC2=O)c(=O)c2ccc(NCCCC(=O)N3CCC(COc4cnc(-c5cccc(Cn6nc(-c7cccc(C#N)c7)ccc6=O)c5)nc4)CC3)cc12` (stereo not drawn) [ICT-0000989] the value was 100 to 1000 nM; for `Cc1nn(C2CCC(=O)NC2=O)c(=O)c2ccc(NCCOCCOCC(=O)N3CCC(COc4cnc(-c5cccc(Cn6nc(-c7cccc(C#N)c7)ccc6=O)c5)nc4)CC3)cc12` (stereo not drawn) [ICT-0001087], under 100 nM. Regarding `Cc1nn(C2CCC(=O)NC2=O)c(=O)c2ccc(NCCOCCOCCOCCOCCC(=O)N3CCC(COc4cnc(-c5cccc(Cn6nc(-c7cccc(C#N)c7)ccc6=O)c5)nc4)CC3)cc12` (stereo not drawn) [ICT-0001091], the 50% degradation concentration (DC50) is under 100 nM. The compound `Cn1cc(-c2cnc3c(nnn3C[C@@H]3CN(c4ncc(-c5ccc(CN6CCN(C(=O)CN7CCN(c8ccc9c(=O)n(C%10CCC(=O)NC%10=O)ncc9c8)CC7)CC6)cc5)cn4)CCO3)n2)cn1` (stereo partly drawn) [ICT-0001109] yielded a DC50 of under 100 nM. Then `Cc1nn(C2CCC(=O)NC2=O)c(=O)c2cc(N3CCN(C(=O)CN4CCC(COc5cnc(-c6cccc(Cn7nc(-c8cccc(C#N)c8)ccc7=O)c6)nc5)CC4)CC3)ccc12` (stereo not drawn) [ICT-0001115, 3-(1-(3-(5-((1-(2-(4-(3-(2,6-dioxopiperidin-3-yl)-1-methyl-4-oxo-3,4-dihydropetalazine-6-yl)piperazine-1-yl)2-oxoethyl)piperidine-4-il)methoxy)pyrimidine-2-yl)benzyl)6-oxo-1,6-dihydropyridazine-3-yl)benzonitrile], with under 100 nM. Then `Cc1nn(C2CCC(=O)NC2=O)c(=O)c2ccc(N3CCN(CCC(=O)N4CCC(COc5cnc(-c6cccc(Cn7nc(-c8cccc(C#N)c8)ccc7=O)c6)nc5)CC4)CC3)cc12` (stereo not drawn) [ICT-0001174], with under 100 nM; and `Cc1nn(C2CCC(=O)NC2=O)c(=O)c2ccc(N3CCN(CCCC(=O)N4CCC(COc5cnc(-c6cccc(Cn7nc(-c8cccc(C#N)c8)ccc7=O)c6)nc5)CC4)CC3)cc12` (stereo not drawn) [ICT-0001175, 3-(1-(3-(5-((1-(4-(4-(2-(2,6-dioxopiperidine-3-yl)-4-methyl-1-oxo-1,2-dihydropthalazine-6-yl)piperazine-1-yl)butanoyl)piperidine-4-il)methoxy)pyrimidine-2-yl)benzyl)6-oxo-1,6-dihydropyridazine-3-yl)benzonitrile], with under 100 nM; and `Cc1nn(C2CCC(=O)NC2=O)c(=O)c2ccc(N3CCN(CCCCC(=O)N4CCC(COc5cnc(-c6cccc(Cn7nc(-c8cccc(C#N)c8)ccc7=O)c6)nc5)CC4)CC3)cc12` (stereo not drawn) [ICT-0001176], with under 100 nM. `Cc1nn(C2CCC(=O)NC2=O)c(=O)c2ccc(N3CCN(C(=O)CN4CCC(COc5cnc(-c6cccc(Cn7nc(-c8cccc(C#N)c8)ccc7=O)c6)nc5)CC4)CC3)cc12` (stereo not drawn) [ICT-0001177, 3-(1-{[3-(5-{[1-(2-{4-[2-(2,6-dioxopiperidin-3-yl)-4-methyl-1-oxo-1,2-dihydropthalazine-6-yl]piperazine-1-yl}-2-oxoethyl)piperidine-4-yl]methoxy}pyrimidine-2-yl)phenyl]methyl}-6-oxo-1,6-dihydropyridazine-3-yl)benzonitrile] gave a DC50 of under 100 nM. For `Cc1nn(C2CCC(=O)NC2=O)c(=O)c2cc(N3CCN(CC4CCN(C(=O)CN5CCC(COc6cnc(-c7cccc(Cn8nc(-c9cccc(C#N)c9)ccc8=O)c7)nc6)CC5)CC4)CC3)ccc12` (stereo not drawn) [ICT-0001195], the DC50 was under 100 nM. For `N#Cc1cccc(-c2ccc(=O)n(Cc3cccc(-c4ncc(OCC5CCN(C(=O)CCN6CCN(c7ccc8c(=O)n(C9CCC(=O)NC9=O)ncc8c7)CC6)CC5)cn4)c3)n2)c1` (stereo not drawn) [ICT-0001199, 3-(1-{[3-(5-{[1-(3-{4-[2-(2,6-dioxopiperidin-3-yl)-1-oxo-1,2-dihydropthalazine-6-yl]piperazine-1-yl}propanoyl)piperidine-4-il]methoxy}pyrimidin-2-yl)phenyl]methyl}-6-oxo-1,6-dihydropyridazine-3-yl)benzonitrile] the value was under 100 nM; for `N#Cc1cccc(-c2ccc(=O)n(Cc3cccc(-c4ncc(OCC5CCN(C(=O)CCCN6CCN(c7ccc8c(=O)n(C9CCC(=O)NC9=O)ncc8c7)CC6)CC5)cn4)c3)n2)c1` (stereo not drawn) [ICT-0001200, 3-(1-{[3-(5-{[1-(4-{4-[2-(2,6-dioxopiperidine-3-yl)-1-oxo-1,2-dihydropthalazine-6-yl]piperazine-1-day}butanoyl)piperidine-4-il]methoxy}pyrimidine-2-yl)phenyl]methyl}6-oxo-1,6-dihydropyridazine-3-yl)benzonitrile], under 100 nM.
